Measurements reported in the NIST ThermoML archive (doi:10.1021/je200793z).

Experiments:
[1] = xn = mol fraction of the nth substance listed

CCO [ethanol] + CCC(C)CO
[1], x2 = 0
Settings	surface tension liquid-gas [mN/m]
293.15 K	22.31
298.15 K	21.82
303.15 K	21.41
308.15 K	21.04
313.15 K	20.62
318.15 K	20.22
323.15 K	19.82

CCC(C)(C)O [2-methylbutan-2-ol] + CCO
surface tension liquid-gas [mN/m], [1]
Settings	293.15 K	298.15 K	303.15 K	308.15 K	313.15 K	318.15 K	323.15 K
x1 = 0.0268	22.5	22.05	21.67	21.34	20.93	20.58	20.22
x1 = 0.0549	22.66	22.23	21.85	21.51	21.16	20.82	20.48
x1 = 0.0845	22.78	22.36	21.98	21.64	21.3	20.97	20.62
x1 = 0.1156	22.88	22.46	22.08	21.75	21.41	21.07	20.72
x1 = 0.1484	22.97	22.54	22.16	21.83	21.48	21.14	20.79
x1 = 0.183	23.04	22.61	22.23	21.89	–	21.2	20.84
x1 = 0.2584	23.16	22.73	22.34	21.99	–	21.28	20.92
x1 = 0.3433	23.28	22.84	22.45	22.09	21.73	21.36	21
x1 = 0.4395	23.41	22.97	22.56	22.19	21.82	21.45	21.08
x1 = 0.5495	23.55	23.1	22.68	22.29	21.92	21.53	21.16
x1 = 0.6765	23.7	23.24	22.81	22.4	22.02	21.62	21.23
x1 = 0.8247	23.88	23.41	22.96	22.53	22.15	21.73	21.34
x1 = 1	24.04	23.61	23.14	22.69	22.3	21.86	21.44

CC(C)CCO [3-methylbutan-1-ol]
Settings	surface tension liquid-gas [mN/m]
293.15 K	24.5
298.15 K	24.15
303.15 K	23.8
308.15 K	23.36
313.15 K	22.96
318.15 K	22.57
323.15 K	22.17

CCC(C)CO (stereo not given) [2-methyl-1-butanol]
Settings	surface tension liquid-gas [mN/m]
293.15 K	24.09
298.15 K	23.61
303.15 K	23.14
308.15 K	22.69
313.15 K	22.3
318.15 K	21.86
323.15 K	21.44

CCO [ethanol]
Settings	surface tension liquid-gas [mN/m]
293.15 K	22.31
298.15 K	21.82
303.15 K	21.41
308.15 K	21.04
313.15 K	20.62
318.15 K	20.22
323.15 K	19.82

CCO [ethanol] + CC(C)CCO
[1], x2 = 0
Settings	surface tension liquid-gas [mN/m]
293.15 K	22.31
298.15 K	21.82
303.15 K	21.41
308.15 K	21.04
313.15 K	20.62
318.15 K	20.22
323.15 K	19.82

CCC(C)(C)O [2-methylbutan-2-ol]
Settings	surface tension liquid-gas [mN/m]
293.15 K	24.04
298.15 K	23.61
303.15 K	23.14
308.15 K	22.69
313.15 K	22.3
318.15 K	21.86
323.15 K	21.44

CCC(C)CO (stereo not given) [2-methyl-1-butanol] + CCO
surface tension liquid-gas [mN/m], [1]
Settings	293.15 K	298.15 K	303.15 K	308.15 K	313.15 K	318.15 K	323.15 K
x1 = 0.0268	22.48	22.1	21.71	21.39	21.04	20.68	20.36
x1 = 0.0549	22.65	22.25	21.9	21.56	21.22	20.9	20.55
x1 = 0.0845	22.76	22.37	21.99	21.67	21.33	21	20.64
x1 = 0.1156	22.86	22.47	22.1	21.75	21.44	21.08	20.73
x1 = 0.1484	22.96	22.54	22.17	21.82	21.49	21.12	20.81
x1 = 0.183	23.01	22.62	22.23	21.89	21.54	21.2	20.86
x1 = 0.2584	23.15	22.72	22.35	22	21.61	21.24	20.91
x1 = 0.3433	23.28	22.86	22.46	22.11	21.76	21.37	20.98
x1 = 0.4395	23.43	22.98	22.58	22.22	21.83	21.44	21.05
x1 = 0.5495	23.56	23.09	22.69	22.3	21.94	21.54	21.15
x1 = 0.6765	23.72	23.25	22.82	22.41	22.02	21.61	21.27
x1 = 0.8247	23.89	23.38	22.96	22.54	22.13	21.7	21.33
x1 = 1	24.09	23.61	23.14	22.69	22.3	21.86	21.44

CC(C)CCO [3-methylbutan-1-ol] + CCO
surface tension liquid-gas [mN/m], [1]
Settings	293.15 K	298.15 K	303.15 K	308.15 K	313.15 K	318.15 K	323.15 K
x1 = 0.0268	22.56	22.09	21.7	21.35	20.95	20.56	20.17
x1 = 0.0549	22.78	22.32	21.94	21.59	21.19	20.81	20.44
x1 = 0.0845	22.98	22.54	22.17	21.81	21.41	21.04	20.67
x1 = 0.1156	23.17	22.73	22.36	22.01	21.62	21.24	20.87
x1 = 0.1484	23.33	22.9	22.53	22.17	21.78	21.41	21.04
x1 = 0.183	23.49	23.05	22.68	22.32	21.92	21.55	21.17
x1 = 0.2584	23.75	23.32	22.95	22.58	22.18	21.8	21.42
x1 = 0.3433	23.96	23.54	23.17	22.79	22.39	22.01	21.63
x1 = 0.4395	24.13	23.72	23.36	22.97	22.57	22.19	21.81
x1 = 0.5495	24.25	23.85	23.49	23.1	22.7	22.33	21.95
x1 = 0.6765	24.34	23.96	23.61	23.21	22.82	22.44	22.06
x1 = 0.8247	24.41	24.05	23.71	23.29	22.89	22.51	22.12
x1 = 1	24.5	24.15	23.8	23.36	22.96	22.57	22.17

CCO [ethanol] + CCC(C)(C)O
[1], x2 = 0
Settings	surface tension liquid-gas [mN/m]
293.15 K	22.31
298.15 K	21.82
303.15 K	21.41
308.15 K	21.04
313.15 K	20.62
318.15 K	20.22
323.15 K	19.82
